# Tested on: hnRNP K
# Experiment: Electrophoretic Mobility Shift Assay (EMSA) of HBV enhancer II probes with HepG2 nuclear extracts
# Assay type: binding, human
# Settings: 10 μg HepG2 nuclear extracts; 32P end-labelled 28-mer probe
# Experimental: 28-mer oligonucleotide probes were designed to contain either the 1752A or 1752G nucleotide with control probes taken from the adjacent upstream sequence. EMSA was performed using HepG2 nuclear extracts with the four respective probes. Probe 1 (SEQ ID NO: 12): Lanes 1 to 4; Probe 2 (SEQ ID NO: 13, A^1752): Lanes 5 to 8; Probe 3 (SEQ ID NO: 14): Lanes 9 to 12; Probe 4 (SEQ ID NO: 15, G^1752): Lanes 13 to 16. Each set of probes contains increasing concentrations (0.0 μg, 0.05 μg, 0.10 μg and 0.15 μg) of non-specific competitor DNA of [poly-(dI)-poly-(dC)] respectively. This competitor DNA is included to minimize the binding of nonspecific proteins to the labeled probes. DNA-protein complexes migrate at a different speed than free DNA molecules. […] Verification of the presence of hnRNP K as the second component in the complex can subsequently be performed by an analysis as shown in FIG. 19. hnRNP K was detected using the 1752A probe (Probe 2, lanes 5 to 8) along with a weaker band of similar size using the 1752G probe (Probe 4, lanes 13 to 16). […]
# HBV-hnRNP K interaction was analysed by a method that is known to persons skilled in the art as an “electrophoretic mobility shift assay” or “EMSA”. […] The 1752A probe (Probe 2, lanes 5 to 8) detected hnRNP K in form of a band. A corresponding weaker band of hnRNP was detected by the 1752G probe (Probe 4, lanes 13 to 16 in FIG. 18).
sequence,measurement,value
"AGTTGGGGGAGGAGATTAGGTTAAAGGT (listed as DNA, chemistry not given here) [Probe 2, 28-mer HBV enhancer II oligonucleotide probe containing 1752A]",densitometric band signal of hnRNP K higher than that detected by Probe 4,about 300%

# Reference: patent publication US20080145346A1, “Methods And Compounds For Altering The Load Of Hepatitis Virus” (Agency for Science, Technology and Research, priority 2003, published 2008)
